“And” between values parts separate entries of the source, which are not always exact repeats. Identical values can stand only once. Like-named read-outs stand apart in the source and are kept apart here. Each block holds one molecule with its values, some of them ahead of it.
How the values were obtained:
BTK in whole blood [1] = biological target: T1, BTK in whole blood (Homo sapiens, UniProt Q06187); assay: Stability of tirabrutinib-treated whole blood; type: cell-based
[2] = tested on: interleukin-2-inducible T-cell kinase (ITK); details: cited from earlier work
TEC [3] = details: cited from earlier work
[4] = tested on: epidermal growth factor kinase (EGFR); details: cited from earlier work
TEC [5] = details: cited from earlier work; remark: listed apart in the source
BTK in human PBMCs = BTK in human PBMCs (Homo sapiens, UniProt Q06187); assay: TR-FRET BTK occupancy assay in purified human PBMCs from healthy volunteers; type: cell-based
BTK in Ramos B cells = BTK in Ramos B cells (Homo sapiens, UniProt Q06187); assay: TR-FRET BTK occupancy assay in Ramos B cells; type: cell-based
BTK in whole blood [6] = biological target: T1, BTK in whole blood; assay: TR-FRET BTK occupancy assay in whole blood from healthy volunteers; type: cell-based
[7] = phase 1 clinical study, cited from earlier work
[8] = biological target: BTK in BMMCs and PBMCs from patients with CLL (Homo sapiens, UniProt Q06187); type: cell-based; details: 110 nM tirabrutinib, 2 h ex vivo
[9] = biological target: Recombinant full-length human BTK (rBTK) (Homo sapiens, UniProt Q06187); assay: TR-FRET BTK occupancy assay on recombinant BTK; type: binding
Recombinant full-length human BTK (rBTK), sequence (Q06187 whole entry): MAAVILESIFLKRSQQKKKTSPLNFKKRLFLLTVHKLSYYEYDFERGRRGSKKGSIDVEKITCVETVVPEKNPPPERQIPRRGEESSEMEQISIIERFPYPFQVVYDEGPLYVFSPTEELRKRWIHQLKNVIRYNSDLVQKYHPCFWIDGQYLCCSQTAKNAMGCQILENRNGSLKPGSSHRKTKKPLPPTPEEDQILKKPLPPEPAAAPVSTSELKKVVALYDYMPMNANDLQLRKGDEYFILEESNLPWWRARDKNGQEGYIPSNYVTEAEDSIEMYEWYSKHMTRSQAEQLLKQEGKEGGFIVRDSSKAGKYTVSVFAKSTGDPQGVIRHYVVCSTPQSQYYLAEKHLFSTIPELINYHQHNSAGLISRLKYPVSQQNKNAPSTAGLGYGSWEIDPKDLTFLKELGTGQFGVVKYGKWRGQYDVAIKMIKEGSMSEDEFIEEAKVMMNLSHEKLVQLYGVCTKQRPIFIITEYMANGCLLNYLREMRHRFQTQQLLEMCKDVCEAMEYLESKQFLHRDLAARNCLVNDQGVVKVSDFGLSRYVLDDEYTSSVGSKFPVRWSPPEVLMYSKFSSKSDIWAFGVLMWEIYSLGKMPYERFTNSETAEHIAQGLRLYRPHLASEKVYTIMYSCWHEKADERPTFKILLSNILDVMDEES

T1 sequence (Q06187 whole entry): as above
BTK in BMMCs and PBMCs from patients with CLL, sequence (Q06187 whole entry): as above
BTK in human PBMCs, sequence (Q06187 whole entry): as above
BTK in Ramos B cells, sequence (Q06187 whole entry): as above

SMILES: CC#CC(=O)N1CCC[C@H]1c1nc(-c2ccc(C(=O)Nc3ccccn3)cc2)c2c(N)nccn12 [acalabrutinib, reference compound]
BTK occupancy on storage at room temperature (BTK in whole blood [1]): effect of room temperature storage was also observed

SMILES: C=CC(=O)N1CCC[C@@H](n2nc(-c3ccc(Oc4ccccc4)cc3)c3c(N)ncnc32)C1 [ibrutinib]
BTK selectivity versus ITK [2]: 21 fold
BTK selectivity versus TEC (TEC [3]): 156 fold
BTK selectivity versus EGFR [4]: 11 fold
Selectivity for BTK over TEC (TEC [5]): 5.6 fold

concentration at which full BTK occupancy was achieved (BTK in human PBMCs): 500 to 1000 nM
concentration at which full BTK occupancy was achieved (BTK in Ramos B cells): 500 to 1000 nM
concentration at which full BTK occupancy was achieved (BTK in whole blood [6]): 500 to 1000 nM
BTK occupancy on storage at room temperature (BTK in whole blood [1]; whole blood pretreated 2 h, then stored at room temperature (24 h and more)): significantly higher target occupancy
BTK occupancy [8]: ~100% and > 80%
concentration at which full BTK occupancy was achieved [9]: 100 nM
SMILES: CC#CC(=O)N1CC[C@@H](n2c(=O)n(-c3ccc(Oc4ccccc4)cc3)c3c(N)ncnc32)C1 [tirabrutinib, Tirabrutinib]
response rate in CLL ([7]; CLL): 96%
response rate in MCL ([7]; MCL): 92%
response in nongerminal center DLBCL ([7]; nongerminal center DLBCL): 35%
BTK occupancy on storage at 4 °C (BTK in whole blood [1]; whole blood pretreated 2 h, then stored at 4 °C for up to 48 h): maintained at the same level for up to 48 h

Reference: PMC6151956 (Slas Discovery, 2018)
